± gives the expanded uncertainty stated by the source.
Experiment: xn = mol fraction of the nth substance listed
Details: 101 kPa, Liquid; for speed of sound: Sing-around technique in a fixed-path interferometer; for mass density: Vibrating tube method

CCCCn1cc[n+](C)c1C.F[B-](F)(F)F [1-butyl-2,3-dimethylimidazolium tetrafluoroborate] + OCCO
Details | mass density, 288.15 K [kg/m3] | mass density, 293.15 K [kg/m3] | mass density, 298.15 K [kg/m3] | speed of sound, 288.15 K [m/s] | speed of sound, 293.15 K [m/s] | speed of sound, 298.15 K [m/s] | speed of sound, 303.15 K [m/s]
x1 = 0.0698 | 1138.16 ± 0.17 | 1134.55 ± 0.17 | 1130.93 ± 0.17 | 1674 ± 2.2 | 1661 ± 2.2 | 1648.8 ± 2.2 | 1637 ± 2.2
x1 = 0.1114 | 1148.04 ± 0.17 | 1144.09 ± 0.17 | 1140.43 ± 0.17 | 1668.1 ± 2.2 | 1655.6 ± 2.2 | 1643.3 ± 2.2 | 1631.5 ± 2.2
x1 = 0.219 | 1163.09 ± 0.17 | 1159.15 ± 0.17 | 1155.3 ± 0.17 | 1661.9 ± 2.2 | 1649.5 ± 2.2 | 1636.8 ± 2.2 | 1624.4 ± 2.2
x1 = 0.3157 | 1172.24 ± 0.17 | 1167.38 ± 0.17 | 1162.95 ± 0.17 | 1657 ± 2.2 | 1643.8 ± 2.2 | 1631.4 ± 2.2 | 1619.7 ± 2.2
x1 = 0.4167 | 1177.8 ± 0.17 | 1172.09 ± 0.17 | 1167.85 ± 0.17 | 1653.7 ± 2.2 | 1639.4 ± 2.2 | 1628.2 ± 2.2 | 1616.6 ± 2.2
x1 = 0.5153 | 1181.99 ± 0.17 | 1176.32 ± 0.16 | 1171.8 ± 0.16 | 1652.5 ± 2.2 | 1638 ± 2.2 | 1627.1 ± 2.2 | 1615.5 ± 2.2
x1 = 0.6157 | 1185.96 ± 0.16 | 1180.66 ± 0.16 | 1176.73 ± 0.16 | 1653.1 ± 2.2 | 1638.7 ± 2.2 | 1627.5 ± 2.2 | 1616.5 ± 2.2
x1 = 0.7042 | 1189.36 ± 0.16 | 1184.47 ± 0.16 | 1180.56 ± 0.16 | 1654.9 ± 2.2 | 1641.5 ± 2.2 | 1630.3 ± 2.2 | 1618.8 ± 2.2
x1 = 0.8028 | 1192.88 ± 0.16 | 1188.27 ± 0.15 | 1184.59 ± 0.15 | 1658 ± 2.2 | 1645.2 ± 2.2 | 1633.5 ± 2.1 | 1621.7 ± 2.1
x1 = 0.9065 | 1196.58 ± 0.15 | 1192.09 ± 0.15 | 1188.59 ± 0.15 | 1662.1 ± 2.1 | 1649.9 ± 2.1 | 1637.7 ± 2.1 | 1625.7 ± 2.1
